US20260272944A1, “PYRIDO[3,4-D]PYRIMIDINONE AND PYRIMDLLNE ARYL HYDROCARBON RECEPTOR ANTAGONISTS AND USES THEREOF” (ALLIANTHERA (SUZHOU) BIOPHARMACEUTICAL CO., LTD., priority 2023, published 2026)

Target: T1, Human Aryl Hydrocarbon Receptor (AhR) (Homo sapiens, UniProt P35869)
T1 construct: purchased INDIGO Bioscience IB06001-32; host or cells: AhR Reporter Cell (the kit's proprietary reporter cells)
T1 sequence (P35869 11-848): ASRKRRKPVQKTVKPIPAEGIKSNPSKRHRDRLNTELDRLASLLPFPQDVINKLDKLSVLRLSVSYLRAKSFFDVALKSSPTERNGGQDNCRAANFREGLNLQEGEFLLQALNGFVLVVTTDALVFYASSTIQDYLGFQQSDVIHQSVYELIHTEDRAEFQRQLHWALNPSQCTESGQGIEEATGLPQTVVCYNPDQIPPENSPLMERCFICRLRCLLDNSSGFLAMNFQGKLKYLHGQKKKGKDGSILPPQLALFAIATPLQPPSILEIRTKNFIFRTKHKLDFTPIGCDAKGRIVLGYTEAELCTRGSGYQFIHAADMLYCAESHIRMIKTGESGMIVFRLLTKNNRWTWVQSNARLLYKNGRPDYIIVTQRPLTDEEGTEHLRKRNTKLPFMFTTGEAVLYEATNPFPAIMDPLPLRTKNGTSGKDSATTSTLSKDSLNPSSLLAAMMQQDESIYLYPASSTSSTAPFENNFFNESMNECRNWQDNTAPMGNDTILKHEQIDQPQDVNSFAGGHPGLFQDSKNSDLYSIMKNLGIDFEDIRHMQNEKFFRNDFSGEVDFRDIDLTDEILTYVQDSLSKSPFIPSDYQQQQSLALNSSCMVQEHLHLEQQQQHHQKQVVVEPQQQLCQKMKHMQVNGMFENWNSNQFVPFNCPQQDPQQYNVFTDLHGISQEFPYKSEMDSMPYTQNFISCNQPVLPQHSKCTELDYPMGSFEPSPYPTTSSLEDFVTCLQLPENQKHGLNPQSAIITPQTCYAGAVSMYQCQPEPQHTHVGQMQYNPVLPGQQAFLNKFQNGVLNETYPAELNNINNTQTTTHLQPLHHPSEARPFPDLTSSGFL
Experiment: AhR reporter assay (Human Aryl Hydrocarbon Receptor (AhR) Reporter Assay System, INDIGO Bioscience)
Type: cell-based
Conditions: AHR inhibition at 10 nM test compound; AhR Reporter Cells activated with 200 μM kynurenic acid, 24 hours; firefly luciferase; normalized by positive and negative controls
Procedure: The AhR reporter assay was performed following the protocol of the Human Aryl Hydrocarbon Receptor (AhR) Reporter Assay System (INDIGO Bioscience, #IB06001-32). AhR Reporter Cell was thawed and pre-incubated in Cell Recovery Medium (CRM) for 6 hours. The media was then removed and the cells were incubated with Compound Screening Medium (CSM) supplemented with 200 μM kynurenic acid for 24 hours in the absence (negative control) or presence of 10 nM test compounds. For positive inhibition control, cells activated with 200 μM kynurenic acid were incubated in the presence of literature AHR antagonists; alternatively un-activated cells were used as positive inhibition control. Following 24 hours incubation, the media was removed and Luciferase Detection Reagent (LDR) added. The firefly luciferase activity was quantified using a plate reader. Results were normalized by positive and negative controls.
The results of AHR inhibition at 10 nM for compounds as disclosed herein is reported in the below table.

inhibition at 0.01 µM [%]	SMILES
29	Cc1cc(-c2cc3c(=O)n([C@@H](C)CO)cnc3c(-c3cnn(C)c3)n2)ccc1N1CCOCC1 [Compound 57]
4	C[C@@H](CO)n1cnc2c(-n3nc(N)ccc3=O)nc(-c3cncc(F)c3)cc2c1=O [Compound 128]
23	C[C@@H]1CN(c2cc(C(=O)N[C@@H](C)CO)nc(-c3cnn(C)c3)n2)CCN1c1ccc(F)cc1 [Compound 73]
46	C[C@@H](CO)n1cnc2c(-c3cnn(C)c3)nc(N3CCN(c4ccc(F)cc4F)CC3)cc2c1=O [Compound 122]
8	C[C@@H](CO)n1cnc2c(-c3cnn(C)c3)nc(-c3ccc(N4CCOCC4)nc3)cc2c1=O [Compound 25]
35	C[C@@H](CO)n1cnc2c(-c3cnn(C)c3)nc(N3Cc4cccc(F)c4C3)cc2c1=O [Compound 52]
-16	C[C@@H](CO)n1cnc2c(-c3cnn(C)c3)nc(-c3ccc(C(=O)N4CCNCC4)cc3)cc2c1=O [Compound 32]
72	C[C@@H](CO)n1cnc2c(-c3cnn(C)c3)nc(-c3ccc(-c4cccc(F)c4)nc3)cc2c1=O [Compound 12]
49	C[C@@H](CO)NC(=O)c1cc(N2Cc3ccccc3C2=O)nc(-c2cnn(C)c2)n1 [Compound 64]
7	C[C@@H](CO)NC(=O)c1cc(-c2ccc(N3CCN(S(C)(=O)=O)CC3)cc2)nc(-c2cnn(C)c2)n1 [Compound 91]
90	C[C@@H](CO)n1cnc2c(-c3cnn(C)c3)nc(-c3ccc(-c4ccc(Cl)cc4)nc3)cc2c1=O [Compound 7]
77	C[C@@H](CO)n1cnc2c(-c3cnn(C)c3)nc(N3Cc4cccnc4C3)cc2c1=O [Compound 124]
62	C[C@@H](CO)NC(=O)c1cc(-c2ccc(-c3cccc(F)c3)nc2)nc(-c2cnn(C)c2)n1 [Compound 68]
85	C[C@@H](CO)n1cnc2c(-c3cnn(C)c3)nc(N3CCN(c4ccc(F)cc4)CC3)cc2c1=O [Compound 14]
44	C[C@@H](CO)n1cnc2c(-c3cnn(C)c3)nc(-c3ccc(-c4ccc(=O)n(C)c4)cc3)cc2c1=O [Compound 44]
83	C[C@@H](CO)n1cnc2c(-c3cnn(C)c3)nc(-c3ccc(-c4ccc(F)nc4)nc3)cc2c1=O [Compound 8]
87	C[C@@H](CO)NC(=O)c1cc(-c2ccc(-c3ccc(Cl)cc3)nc2)nc(-c2cnn(C)c2)n1 [Compound 70]
99	C[C@@H](CO)n1cnc2c(-c3cnn(C)c3)nc(N3Cc4ccc(F)cc4C3)cc2c1=O [Compound 56]
13	C[C@@H](CO)NC(=O)c1cc(N2CCN(c3ccc(F)cc3)[C@@H](C)C2)nc(-c2cnn(C)c2)n1 [Compound 72]
24	C[C@@H](CO)n1cnc2c(-c3cnn(C)c3)nc(-c3cnc(N4CCOCC4)nc3)cc2c1=O [Compound 26]
64	C[C@@H](CO)n1cnc2c(-c3cnn(C)c3)nc(-c3ccc(N4CCCCC4)cc3)cc2c1=O [Compound 13]
